Reference: patent US10428044B2, “3-amino-1,5,6,7-tetrahydro-4H-indol-4-ones” (Bayer Pharma Aktiengesellschaft, priority 2014, dated 2019)
pIC50: −log10 of the molar value.

The molecules below were run against (recombinant) catalytic domain of human Bub1 (amino acids 704-1085) (Homo sapiens (Human), UniProt O43683) (assay: Bub1 kinase assay (TR-FRET)). Conditions: ATP 10 μM final, peptide substrate 1 μM final, 60 min at 22° C., read-out: Biological Assay: Bub1 kinase assay median IC50.
Assay type: biochemical
Outline: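 Compounds were serially diluted 1:3.4 from 2 mM DMSO stocks and incubated with the enzyme reaction for 60 min at 22° C. The reaction was stopped with EDTA, and biotinylated peptide phosphorylation was read by TR-FRET using Eu anti-mouse IgG, anti-phosphoserine antibody and streptavidin-XL665. IC50 was fitted by 4-parameter logistic to inhibition normalized to no-inhibitor and no-enzyme controls.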

Sequence of (recombinant) catalytic domain of human Bub1 (amino acids 704-1085) (O43683 704-1085): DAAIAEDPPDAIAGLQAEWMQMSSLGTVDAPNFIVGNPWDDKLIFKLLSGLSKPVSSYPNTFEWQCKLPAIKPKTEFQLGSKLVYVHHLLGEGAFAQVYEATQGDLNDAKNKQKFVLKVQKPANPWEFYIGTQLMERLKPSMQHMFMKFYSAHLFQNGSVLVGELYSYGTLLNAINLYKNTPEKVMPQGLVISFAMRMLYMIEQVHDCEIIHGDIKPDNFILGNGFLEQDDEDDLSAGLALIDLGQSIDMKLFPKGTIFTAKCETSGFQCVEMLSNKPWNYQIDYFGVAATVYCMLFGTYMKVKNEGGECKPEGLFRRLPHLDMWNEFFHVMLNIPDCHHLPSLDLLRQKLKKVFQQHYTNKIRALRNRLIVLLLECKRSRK

pIC50	Compound
8.19	Cc1cnc(COCC(=O)Nc2cc(-c3[nH]c4c(c3Nc3ccccc3)C(=O)CCC4)ccn2)o1 [Example 355, 2-[(5-methyl-1,3-oxazol-2-yl)methoxy]-N-{4-[4-oxo-3-(phenylamino)-4,5,6,7-tetrahydro-1H-indol-2-yl]pyridin-2-yl}acetamide]
8.19	Cc1ncsc1COCC(=O)Nc1cc(-c2[nH]c3c(c2Nc2ccccc2)C(=O)CCC3)ccn1 [Example 496, 2-[(4-methyl-1,3-thiazol-5-yl)methoxy]-N-{4-[4-oxo-3-(phenylamino)-4,5,6,7-tetrahydro-1H-indol-2-yl]pyridin-2-yl}acetamide]
5.40	CNC(C)(C)C(=O)Nc1cc(-c2[nH]c3c(c2Nc2ccccc2)C(=O)CCC3)ccn1 [Example 306, N^2,2-dimethyl-N-{4-[4-oxo-3-(phenylamino)-4,5,6,7-tetrahydro-1H-indol-2-yl]pyridin-2-yl}alaninamide]
7.93	CCOc1cnccc1-c1[nH]c2c(c1Nc1ccccc1)C(=O)CC(C)(C)C2 [Example 404, 2-(3-ethoxypyridin-4-yl)-6,6-dimethyl-3-(phenylamino)-1,5,6,7-tetrahydro-4H-indol-4-one]
6.34	CC1(C)CC(=O)c2c([nH]c(-c3ccncc3)c2Nc2cccc(C(=O)OC(C)(C)C)c2)C1 [Example 118, tert-butyl 3-{[6,6-dimethyl-4-oxo-2-(pyridin-4-yl)-4,5,6,7-tetrahydro-1H-indol-3-yl]amino}benzoate]
6.68	CC(Nc1cc(-c2[nH]c3c(c2Nc2ccccc2)C(=O)CC(C)(C)C3)ccn1)C(F)F (centres unmarked) [Example 363, 2-(2-{[1,1-difluoropropan-2-yl]amino}pyridin-4-yl)-6,6-dimethyl-3-(phenylamino)-1,5,6,7-tetrahydro-4H-indol-4-one]
5.35	CO/N=C1\CC(C)(C)Cc2[nH]c(-c3ccncc3)c(Nc3ccccc3)c21 [Example 471, 4-(methoxyimino)-6,6-dimethyl-N-phenyl-2-(pyridin-4-yl)-4,5,6,7-tetrahydro-1H-indol-3-amine]
7.57	CC1(C)CC(=O)c2c([nH]c(-c3ccncc3)c2Nc2cccc([N+](=O)[O-])c2)C1 [Example 16, 6,6-dimethyl-3-[(3-nitrophenyl)amino]-2-(pyridin-4-yl)-1,5,6,7-tetrahydro-4H-indol-4-one]
7.64	O=C(Nc1cc(-c2[nH]c3c(c2Nc2ccccc2)C(=O)CCC3)ccn1)c1ccncc1 [Example 268, N-{4-[4-oxo-3-(phenylamino)-4,5,6,7-tetrahydro-1H-indol-2-yl]pyridin-2-yl}pyridine-4-carboxamide]
7.72	O=C(Nc1cc(-c2[nH]c3c(c2Nc2ccccc2)C(=O)CCC3)ccn1)c1cc(F)cc(F)c1 [Example 452, 3,5-difluoro-N-{4-[4-oxo-3-(phenylamino)-4,5,6,7-tetrahydro-1H-indol-2-yl]pyridin-2-yl}benzamide]
7.30	CC(C)C(=O)Nc1cc(-c2[nH]c3c(c2Nc2ccccc2)C(=O)CC(C)(C)C3)ccn1 [Example 132, N-{4-[6,6-dimethyl-4-oxo-3-(phenylamino)-4,5,6,7-tetrahydro-1H-indol-2-yl]pyridin-2-yl}-2-methylpropanamide]
